{
  "source": "paper PMC11007773",
  "about": "(ACS Omega, 2024)",
  "biological_target": "Human transferrin (Htf) (Homo sapiens, UniProt P02787)",
  "sequence (P02787 20-698)": "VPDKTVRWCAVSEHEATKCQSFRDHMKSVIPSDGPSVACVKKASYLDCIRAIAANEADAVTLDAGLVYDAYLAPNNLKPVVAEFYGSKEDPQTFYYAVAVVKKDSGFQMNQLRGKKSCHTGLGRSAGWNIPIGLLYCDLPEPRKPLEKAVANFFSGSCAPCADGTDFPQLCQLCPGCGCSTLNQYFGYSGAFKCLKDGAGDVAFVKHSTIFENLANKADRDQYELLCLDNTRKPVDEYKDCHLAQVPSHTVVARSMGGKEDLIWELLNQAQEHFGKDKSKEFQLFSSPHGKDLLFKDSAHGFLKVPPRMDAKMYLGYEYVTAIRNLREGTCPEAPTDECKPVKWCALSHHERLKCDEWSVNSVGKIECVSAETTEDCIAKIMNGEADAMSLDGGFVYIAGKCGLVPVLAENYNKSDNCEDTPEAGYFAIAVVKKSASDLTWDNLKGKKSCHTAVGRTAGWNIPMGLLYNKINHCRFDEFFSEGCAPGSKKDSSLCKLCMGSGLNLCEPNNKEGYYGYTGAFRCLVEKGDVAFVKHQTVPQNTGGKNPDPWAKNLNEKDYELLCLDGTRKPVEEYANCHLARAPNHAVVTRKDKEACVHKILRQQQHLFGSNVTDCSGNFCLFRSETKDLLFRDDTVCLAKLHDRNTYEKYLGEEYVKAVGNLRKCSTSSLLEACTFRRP",
  "test": "isothermal titration calorimetry",
  "format": "binding",
  "data": [
    {"smiles": "O=c1oc2c(O)c(O)cc3c(=O)oc4c(O)c(O)cc1c4c23", "note": "[Ellagic acid]", "values": [
      {"measurement": "Kd", "result": 1450, "unit": "nM"}
    ]}
  ]
}
